Source: the supplement of paper PMC10307832

Assays:
Assay in all cases: relative viability (nuclei count vs DMSO), 5 days (fraction); higher = more cells survive
[1] = compound: Nc1ccn([C@@H]2O[C@H](CO)[C@@H](O)C2(F)F)c(=O)n1 [Gemcitabine] + CS(=O)(=O)N1CCN(Cc2cc3nc(-c4cccc5[nH]ncc45)nc(N4CCOCC4)c3s2)CC1 [Pictilisib] (partner 1 µM)
Outline: (§1)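 After 5 days of treatment, lung cancer cells in 1536-well plates were fixed and stained in a single step (final 0.05% Triton X-100, 1% formaldehyde, 1 ug/ml Hoechst) and their nuclei counted on 4× images. Treatment had been applied by pin tool the day after seeding as one drug alone or as a fixed anchor-drug dose with five library-drug doses (not always all listed) in √10 steps. Relative viability is the nuclei count of treated wells divided by that of vehicle wells, and values are medians of duplicate plates.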

[2] = compound: Nc1ccn([C@@H]2O[C@H](CO)[C@@H](O)C2(F)F)c(=O)n1 [Gemcitabine] + CC(C)C[C@H](NC(=O)[C@H](Cc1ccccc1)NC(=O)c1cnccn1)B(O)O [Bortezomib] (partner 0.002 µM)
Outline: as §1

[3] = compound: Nc1ccn([C@@H]2O[C@H](CO)[C@@H](O)C2(F)F)c(=O)n1 [Gemcitabine] + COc1cc2c(Oc3ccc(NC(=O)C4(C(=O)Nc5ccc(F)cc5)CC4)cc3F)ccnc2cc1OCCCN1CCOCC1 [Foretinib] (partner 0.25 µM)
Outline: as §1

[4] = compound: Nc1ccn([C@@H]2O[C@H](CO)[C@@H](O)C2(F)F)c(=O)n1 [Gemcitabine] + CC(=O)c1c(C)c2cnc(Nc3ccc(N4CCNCC4)cn3)nc2n(C2CCCC2)c1=O [Palbociclib] (partner 0.5 µM)
Outline: as §1

Cell Line	relative viability ([1]; first compound 0.001 µM)	relative viability ([1]; first compound 0.003162 µM)	relative viability ([1]; first compound 0.01 µM)	relative viability ([1]; first compound 0.03162 µM)	relative viability ([1]; first compound 0.1 µM)	relative viability ([2]; first compound 0.001 µM)	relative viability ([2]; first compound 0.003162 µM)	relative viability ([2]; first compound 0.01 µM)	relative viability ([2]; first compound 0.03162 µM)	relative viability ([2]; first compound 0.1 µM)	relative viability ([3]; first compound 0.001 µM)	relative viability ([3]; first compound 0.003162 µM)	relative viability ([3]; first compound 0.01 µM)	relative viability ([3]; first compound 0.03162 µM)	relative viability ([3]; first compound 0.1 µM)	relative viability ([4]; first compound 0.001 µM)	relative viability ([4]; first compound 0.003162 µM)	relative viability ([4]; first compound 0.01 µM)	relative viability ([4]; first compound 0.03162 µM)	relative viability ([4]; first compound 0.1 µM)
LCLC-103H	0.579	0.641	0.659	0.627	0.417	1.1	1.04	1.05	1.11	0.934	0.78	0.853	0.663	0.348	0.233	0.491	0.504	0.497	0.42	0.406
LOU-NH91	0.496	0.475	0.486	0.389	0.34	0.498	0.494	0.423	0.323	0.313	0.965	0.69	0.591	0.332	0.209	0.524	0.522	0.478	0.474	0.412
LU99A	0.33	0.31	0.313	0.369	0.333	1.14	1.18	1	1.25	1.18	0.856	0.791	0.858	0.819	0.812	0.412	0.43	0.409	0.404	0.421
LXF-289	0.761	0.758	0.592	0.275	0.11	0.995	1.02	0.768	0.178	0.0983	0.974	0.966	0.803	0.106	0.107	0.606	0.604	0.428	0.127	0.14
NCI-H23	0.446	0.328	0.143	0.146	0.104	0.848	0.511	0.148	0.141	0.0999	0.751	0.441	0.178	0.163	0.131	0.383	0.245	0.158	0.156	0.139
NCI-H322M	0.445	0.178	0.251	0.239	0.244	1.35	0.439	0.334	0.291	0.234	0.985	0.383	0.289	0.272	0.29	0.463	0.396	0.336	0.452	0.425
NCI-H441	0.521	0.343	0.196	0.109	0.126	0.642	0.327	0.116	0.14	0.139	1.2	0.711	0.421	0.21	0.211	0.242	0.163	0.178	0.13	0.123
NCI-H460	0.37	0.328	0.0742	0.0745	0.0388	1.24	1.09	0.419	0.0106	0.0083	0.935	1.01	0.832	0.0311	0.0132	0.129	0.212	0.0945	0.0273	0.0115
NCI-H520	0.333	0.321	0.254	0.199	0.161	0.604	0.698	0.295	0.154	0.11	0.887	0.684	0.286	0.199	0.153	0.237	0.23	0.174	0.164	0.146
NCI-H647	0.304	0.163	0.0953	0.0685	0.0658	0.783	0.224	0.0897	0.0721	0.0698	1.06	0.279	0.0991	0.0846	0.0592	0.388	0.287	0.0692	0.0695	0.044
NCI-H650	0.918	0.502	0.246	0.166	0.166	0.847	0.327	0.201	0.151	0.175	0.998	0.648	0.197	0.175	0.175	0.221	0.189	0.136	0.123	0.146
NCI-H661	0.352	0.388	0.288	0.224	0.242	0.838	0.655	0.491	0.213	0.209	1.04	0.871	0.956	0.341	0.218	0.394	0.409	0.411	0.241	0.237
NCI-H727	0.552	0.459	0.304	0.216	0.211	0.841	0.405	0.241	0.258	0.287	0.815	0.71	0.376	0.363	0.276	0.674	0.592	0.574	0.597	0.503
NCI-H838	0.476	0.501	0.468	0.346	0.141	0.911	0.948	1.02	0.355	0.0993	1.12	1.26	0.999	0.435	0.17	0.228	0.244	0.237	0.199	0.125
